According to patent US20220354098A1, “Genetically Modified Non-Human Animals and Methods of Use Thereof” (YALE UNIVERSITY, priority 2019, published 2022):

What was measured:
[1] = target: T1, scavenger receptor B1 (SR-B1) (Mus musculus, UniProt Q61009); assay: SR-B1 inhibitors in RGSKI mice: survival of transfused human RBCs in peripheral blood; format: in vivo; settings: 2 mg per mouse, one hour before human RBC infusion
T1 construct: endogenous in cells
T1 sequence (Q61009 1-509): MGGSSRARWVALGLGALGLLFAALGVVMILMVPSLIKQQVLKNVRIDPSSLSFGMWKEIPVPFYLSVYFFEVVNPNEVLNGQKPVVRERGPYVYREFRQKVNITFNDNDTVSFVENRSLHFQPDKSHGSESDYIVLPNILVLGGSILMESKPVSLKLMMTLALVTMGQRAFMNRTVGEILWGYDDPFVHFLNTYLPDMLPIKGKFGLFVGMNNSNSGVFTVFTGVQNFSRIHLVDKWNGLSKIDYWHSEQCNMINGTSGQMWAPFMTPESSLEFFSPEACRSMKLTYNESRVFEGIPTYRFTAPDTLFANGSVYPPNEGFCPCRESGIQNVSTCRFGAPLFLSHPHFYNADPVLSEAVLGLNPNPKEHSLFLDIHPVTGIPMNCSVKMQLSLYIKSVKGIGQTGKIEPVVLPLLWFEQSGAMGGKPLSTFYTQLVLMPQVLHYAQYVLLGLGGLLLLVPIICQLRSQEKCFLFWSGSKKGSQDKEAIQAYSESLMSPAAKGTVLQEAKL
Experimental: (§1) Inhibitor of scavenger receptor B1 can protect human RBCs in the mouse system. RGSKI mice were treated with scavenger receptor B1 named BLT-1 (2 mg per mouse). One hour after treatment, mice were infused with human RBCs and peripheral blood was collected at indicated time points. Control: PBS.
as §1, with “ITX7650 or ITX5061 (1” for “BLT-1 (2”, “mouse) obtained from iTherX.” for “mouse).”

[2] = test system: Fah-KO mouse hepatocytes; assay: NTBC rescue of Fah-KO mouse hepatocytes; format: in vivo; settings: NTBC in drinking water
Description: MISTRGFah are viable, fertile, and can be bred as homozygotes when maintained on drinking water supplemented with 2-(2-nitro-4-trifluoromethylbenzoyl)-1,3-cyclohexanedione (NTBC), that blocks tyrosine metabolism upstream of FAH and prevents buildup of hepatotoxic metabolites. At 8 weeks of age, MISTRGFah. mice were implanted with commercially available, adult human hepatocytes (HuHep) via direct injection into the splenic vein, followed by gradual withdrawal of NTBC water. Regulated buildup of intracellular FA results in death of murine Fah^−/− hepatocytes and regeneration with HuHep with up to 90% repopulation by HuHep (Azuma H et al., 2007, Nature Biotechnology, 25:903-910). When plasma human albumin levels reached 2 mg/dL (FIG. 11A), indicative of significant (˜80%) HuHep repopulation, HuHepMISTRGFah mice were sublethally (80cGy) irradiated and each mouse was engrafted with […] fetal liver (FL) derived CD34+ cells. MISTRG (80cGy), MISTRGW41 and NSGW41 (no irrad) served as controls to assess the effects of human liver vs W41 mutation vs cytokine humanization on erythropoiesis and huRBC in circulation. 10 weeks post transplantation mice were analyzed for engraftment and. specifically erythroid maturation and PB huRBC.

[3] = test system: C3 and C5 complement; settings: cited from earlier work

CCCCCCC1CCCC1=NNC(N)=S (centres unmarked) [BLT-1]
Protection of transfused human red blood cells in mouse periphery [1]: protected

O=C1CCCC(=O)C1C(=O)c1ccc(C(F)(F)F)cc1[N+](=O)[O-] [NTBC, 2-(2-nitro-4-trifluoromethylbenzoyl)-1,3-cyclohexanedione]
Rescue of Fah-KO mouse hepatocytes [2]: rescues the Fah-KO mouse hepatocytes from death

cobra venom factor
Maximum human RBC chimerism ([3]; CVF with concurrent liposomal clodronate): ~3%
% of circulating huRBC ([3]; only in conjunction with liposomal clodronate in NOD/SCID mice): increased the % of circulating huRBC
huRBC survival ([3]; only when MΦs are depleted concurrently with liposomal clodronate): significantly prolonged
